Among the test systems are Lactococcus garvieae; Streptococcus iniae; Vibrio alginolyticus; Vibrio harveyi; Vibrio parahaemolyticus; Candida albicans; Escherichia coli U7103; Escherichia coli U7794; Escherichia coli; Staphylococcus aureus.
What all share (assay): ≥ marks a high value that may be exact or a test limit, other limits are often not marked, values filed in µg/mL are converted to µM
For test [1], the system named is Enterobacter cloacae BCRC 10401.
Test [2] concerns Escherichia coli BCRC 10675.
Test [3] has as its system Klebsiella aerogenes BCRC 10370.
Test [4] deals with Klebsiella oxytoca BCRC 13985.
The test system of test [5] is Listeria monocytogenes BCRC 14845.
Test [6] concerns Pseudomonas aeruginosa BCRC 10944.
Test [7] has as its system Staphylococcus aureus BCRC 10780.
Test [8] relates to Staphylococcus aureus BCRC 10781.
Test [9] deals with Staphylococcus xylosus BCRC 12930.
Test [10] concerns Streptococcus equinus BCRC 14729.
Test [11] deals with Vibrio alginolyticus BCRC 12829.
Test [12] concerns Vibrio anguillarum serotype O1.
Test [13] deals with Vibrio parahaemolyticus BCRC 10806.
The test system of test [14] is Yersinia enterocolitica BCRC 13999.
In test [15] the test system is Enterobacter cloacae NHTCC 53001.
Test [16] deals with Enterococcus faecalis ATCC 29212.
In test [17] the test system is Escherichia coli 0112 EIEC26.
Test [18] deals with Escherichia coli 0112 EIEC27.
The subject of test [19] is Escherichia coli 0143 EIEC7.
Test [20] concerns Escherichia coli 0152 EIEC1.
Test [21] concerns Escherichia coli 0164 EIEC6.
The test system of test [22] is Escherichia coli ATCC 25922.
Test [23] has as its system Escherichia coli ATCC 35218.
The subject of test [24] is Escherichia coli AX-054-1-3.
Test [25] relates to Escherichia coli AX-100-3-1.
Test [26] relates to Escherichia coli AX-109-2-3.
For test [27], the system named is Escherichia coli AX-128-3-3.
In test [28] the test system is Escherichia coli O157:H7 282.
Test [29] concerns Escherichia coli O157:H7 30328.
Test [30] concerns Escherichia coli O157:H7 734/94.
Test [31] deals with Escherichia coli O157:H7 CB6392.
Test [32] relates to Escherichia coli O26:H- CB6418.
Test [33] deals with Escherichia coli O26:H11 3.
In test [34] the test system is Escherichia coli O6:K15:H31 536.
The subject of test [35] is Klebsiella pneumoniae KK3 9904.
The subject of test [36] is Proteus mirabilis ATCC 25933.
In test [37] the test system is Pseudomonas aeruginosa ATCC 27853.
In test [38] the test system is Staphylococcus aureus NCTC 8325.
The test system of test [39] is Staphylococcus epidermidis RP62A.
Test [40] relates to Bacillus subtilis ATCC 6633.
In test [41] the test system is Candida albicans ATCC 36232.
In test [42] the test system is Corynebacterium diphtheriae ATCC 8024.
For test [43], the system named is Escherichia coli ATCC 2592.
In test [44] the test system is Micrococcus luteus ATCC 9341.
For test [45], the system named is Pseudomonas aeruginosa ATCC 9027.
Test [46] concerns Shigella flexneri ATCC 203.
Test [47] has as its system Staphylococcus aureus ATCC 6538.
Test [48] concerns Staphylococcus epidermidis ATCC 12228.

Converted amounts (≈) assume the structure as drawn. A value given as a limit tells only on which side of the number the result lay.

For orientation: MIC means the lowest concentration found to suppress growth. Low readings indicate a more susceptible organism, high ones a less susceptible organism. Consider `CC[C@H](C)[C@H](NC(=O)[C@@H](NC(=O)[C@H](Cc1ccccc1)NC(=O)[C@H](Cc1ccc(O)cc1)NC(=O)[C@H](CCCCN)NC(=O)[C@H](CCCCN)NC(=O)[C@H](CC(C)C)NC(=O)[C@H](C)NC(=O)[C@H](CC(N)=O)NC(=O)[C@H](C)NC(=O)CN)[C@@H](C)O)C(=O)N[C@@H](CC(C)C)C(=O)N[C@@H](CCCCN)C(=O)N[C@@H](CCCCN)C(=O)N[C@@H](Cc1ccccc1)C(=O)N[C@@H](Cc1ccccc1)C(=O)N[C@@H](CCCCN)C(=O)N[C@@H](CC(C)C)C(=O)N[C@@H](C)C(=O)N[C@@H](Cc1c[nH]c2ccccc12)C(=O)O` [GANALKKYFTILKKFFKLAW], for which the MIC is 3.35 µM (≈ 8 µg/mL) in test [1]; 3.35 µM (≈ 8 µg/mL) in [2]; 6.7 µM (≈ 16 µg/mL) in test [3]; 26.8 µM (≈ 64 µg/mL) in test [4]; 26.8 µM (≈ 64 µg/mL) with Lactococcus garvieae; 6.7 µM (≈ 16 µg/mL) in [5]. Moreover, the MIC in [6] is 6.7 µM (≈ 16 µg/mL); in test [7], 6.7 µM (≈ 16 µg/mL); in test [8], 6.7 µM (≈ 16 µg/mL); in [9], 6.7 µM (≈ 16 µg/mL); in test [10] it was no less than 53.6 µM; in the test with Streptococcus iniae it was 26.8 µM (≈ 64 µg/mL). For the same compound, the minimum inhibitory concentration (MIC) worked out at 26.8 µM (≈ 64 µg/mL) in test [11]; 3.35 µM (≈ 8 µg/mL) in the test on Vibrio alginolyticus; 6.7 µM (≈ 16 µg/mL) in test [12]; 1.68 µM (≈ 4 µg/mL) in the test with Vibrio harveyi; 3.35 µM (≈ 8 µg/mL) in test [13]; 6.7 µM (≈ 16 µg/mL) in the test on Vibrio parahaemolyticus. This compound returned a minimum inhibitory concentration (MIC) in test [14] of 13.4 µM (≈ 32 µg/mL).

`CC[C@H](C)[C@H](NC(=O)[C@H](CCCCN)NC(=O)[C@H](CS)NC(=O)[C@H](C)NC(=O)[C@@H](NC(=O)[C@H](Cc1ccccc1)NC(=O)CNC(=O)[C@H](CC(C)C)NC(=O)CNC(=O)[C@@H](NC(=O)[C@H](CCCCN)NC(=O)CNC(=O)[C@H](CC(C)C)NC(=O)[C@H](CCCCN)NC(=O)[C@H](CCCCN)NC(=O)[C@H](CC(C)C)NC(=O)[C@@H](NC(=O)[C@H](CO)NC(=O)[C@H](CC(C)C)NC(=O)[C@H](CCSC)NC(=O)[C@@H](N)CO)C(C)C)C(C)C)C(C)C)C(=O)N[C@@H](CC(N)=O)C(=O)N[C@@H](CCCCN)C(=O)N[C@@H](CCC(N)=O)C(=O)N[C@@H](CS)C(=O)O` [SMLSVLKKLGKVGLGFVACKINKQC]: the MIC in the test on Candida albicans was determined as 20 µM (≈ 53.3 µg/mL); in test [15] it was 10 µM (≈ 26.7 µg/mL); in test [16], 20 µM (≈ 53.3 µg/mL); in test [17], 5 µM (≈ 13.3 µg/mL); in test [18] it was 5 µM (≈ 13.3 µg/mL); in test [19], 5 µM (≈ 13.3 µg/mL). The minimum inhibitory concentration (MIC) in test [20] turned out to be 5 µM (≈ 13.3 µg/mL); in test [21] it was 5 µM (≈ 13.3 µg/mL); in [22] it was 10 µM (≈ 26.7 µg/mL); in test [23], 5 µM (≈ 13.3 µg/mL); in test [24], 10 µM (≈ 26.7 µg/mL); in test [25] it was 5 µM (≈ 13.3 µg/mL). The MIC in test [26] came out at 5 µM (≈ 13.3 µg/mL); in test [27], 5 µM (≈ 13.3 µg/mL); in test [28], 2.5 µM (≈ 6.66 µg/mL); in [29], 5 µM (≈ 13.3 µg/mL); in test [30] it was 5 µM (≈ 13.3 µg/mL); in [31], 5 µM (≈ 13.3 µg/mL). Moreover, the MIC in [32] is 5 µM (≈ 13.3 µg/mL); in test [33] it was 2.5 µM (≈ 6.66 µg/mL); in test [34], 2.5 µM (≈ 6.66 µg/mL); in the test on Escherichia coli U7103, 2.5 µM (≈ 6.66 µg/mL); against Escherichia coli U7794 it was 5 µM (≈ 13.3 µg/mL); with Escherichia coli it was 5 µM (≈ 13.3 µg/mL). The minimum inhibitory concentration (MIC) in test [35] is 10 µM (≈ 26.7 µg/mL); in test [36], no less than 100 µM; in test [37], 10 µM (≈ 26.7 µg/mL); in [38], 10 µM (≈ 26.7 µg/mL); against Staphylococcus aureus, 10 µM (≈ 26.7 µg/mL); in test [39] it was 10 µM (≈ 26.7 µg/mL).

Turning to `CC(C)[C@H](NC(=O)[C@H](CS)NC(=O)[C@@H](NC(=O)[C@H](CCCN=C(N)N)NC(=O)[C@H](CCCCN)NC(=O)CNC(=O)[C@H](CC(N)=O)NC(=O)[C@H](CS)NC(=O)[C@@H](N)Cc1ccc(O)cc1)C(C)C)C(=O)N[C@@H](CS)C(=O)N[C@@H](CCCN=C(N)N)C(N)=O` [YCNGKRVCVCR], the minimum inhibitory concentration (MIC) in test [40] was found to be 11.5 µM (≈ 15 µg/mL); in test [41] it was 11.5 µM (≈ 15 µg/mL); in [42] it was 5.77 µM (≈ 7.49 µg/mL); in test [43], 11.5 µM (≈ 15 µg/mL); in test [44] it was 23.1 µM (≈ 30 µg/mL); in test [45], 38.4 µM (≈ 50 µg/mL). Moreover, the MIC in [46] is 11.5 µM (≈ 15 µg/mL); in test [47] it was 23.1 µM (≈ 30 µg/mL); in the test with Staphylococcus aureus, greater than 76.9 µM; in test [48] it was 11.5 µM (≈ 15 µg/mL).
